Measured values published in patent publication US12252701B2, “Chimeric antigen receptor T cell therapy” (KITE PHARMA, INC., priority 2020, dated 2025).

Assays:
Nalm6 cells = experiment: Serial killing assay, T-cell (CD4, CD8) and Nalm6 cell counts by flow cytometry; assay type: cell-based, human
Experimental: T-cell counts (CD4 and CD8) were assessed by flow cytometry.
Nalm6 cells were assessed by flow cytometry.
T-cell counts (CD4 and CD8) and Nalm6 cells were assessed by flow cytometry.

Nalm-6 luc = experiment: CAR-T cell killing assay (luciferase viability of tumor cells)
[1] = system: monocyte-derived macrophages; experiment: Macrophage differentiation and M1/M2 polarization (surface markers by flow cytometry); assay type: cell-based, human
Experimental: Monocytes were prepared from healthy donor PBMCs by negative selection for CD14+ monocytes using MACS (these cryopreserved monocytes provided by […], Alameda, CA) at >95% purity. Monocytes were differentiated into macrophages (M0) using traditional methods. In brief, 1×10^6 monocytes were plated into 12-well plate wells in a total volume of 2 mL macrophage culture media (MCM) (ImmunoCult™-SF Macrophage medium, Stem Cell Technologies) containing 50 ng/ml M-CSF and cultured for 6 days at 37° C./5% CO2. On day 2 of differentiation, cultures were replenished with fresh media and M-CSF. On day 6, a portion of the wells containing differentiated macrophages were replenished with 2 ml of fresh MCM containing 50 ng/ml M-CSF, 100 ng/ml LPS, 20 ng/ml IFNg and cultured for another 48 hours to polarize the macrophage to an M1 macrophage phenotype. Also on day 6, another portion of the wells containing differentiated macrophages were replenished with 2 ml of fresh R10 containing 50 ng/ml M-CSF and 20 ng/ml IL-4 and cultured for another 48 hours to polarize the macrophages to M2 macrophage phenotype. On day 8, all putative polarized macrophages were assessed for M1 and M2-specific surface markers using relevant M1/M2 immunophenotyping panels and flow cytometry. The cell surface markers used to assess monocytes, M0, M1 and M2 macrophage phenotypes included CD14, CD32, CD38, CD80, CD86, CD68, CD163, CD200R1, CD204, CD206, CD209, and HLA-DR.

[2] = system: phospho-STAT panel (pSTAT3/4/5), CD3+ T cells; experiment: phospho-STAT induction by IL-6, MesoScale Discovery phospho-STAT panel; assay type: cell-based, human; details: for pSTAT3 / pSTAT4 / pSTAT5: CD3+ T cells
Method in brief: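 CD19 CAR-T cells, PBMC or CD3+ T cells, rested overnight, were stimulated at 700,000 cells/well with 100 ng/ml IL6 plus compound for 20 minutes at 37° C. Cells were lysed in Tris buffer and pSTAT3/4/5 measured by MSD electrochemiluminescence immunoassay.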

in vitro = details: human
Experimental: 96-well plates were coated with 100 μl of KIP-1 antibody per well at 1 μg/ml in PBS and plates were incubated at 4° C. overnight. CAR-T cells were thawed and were rested in ImmunoCult expansion medium and incubated overnight at 37° C. Cells were then counted and resuspended at 2 million cells/ml and seed at 200,000 cells per well in 100 μl of expansion medium with 10 ng/ml recombinant IL2. For groups treated with KIP-1, 100 μl of expansion medium were added with 2× final drug dilutions. For CD3/CD28 treated groups, 100 μl of expansion media were added with 2× final drug dilutions containing 25 μl/ml of CD3/CD28 T cell activator from StemCell Technologies. Cells were then incubated at 37° C. After 4 days, cells were counted and diluted 1 to 8-fold in expansion media and then transferred to a 24-well plate. Cell counts were repeated at day 7 and transferred to T25 flasks. On day 11, all cells were harvested and counted.

[3] = E:T ratio of 1:1, dose titration

Nc1nc2cccc(-c3ccc(CN4CCS(=O)(=O)CC4)cc3)n2n1 [GS-829845]
persistence of T-cells (CD4 and CD8 counts) (Nalm6 cells; [3]): Improved persistence
serial killing assessed by Nalm6 cells (flow cytometry) (Nalm6 cells; [3]): enhance serial killing in a dose-dependent manner
impact on T-cell counts and Nalm6 cell counts (Nalm6 cells; E:T ratio of 1:3, dose titration): not impacted

C[C@@H]1CCN(C(=O)CC#N)C[C@@H]1N(C)c1ncnc2[nH]ccc12 [tofacitinib]
Mean tumor cell death (%) (Nalm-6 luc; E:T ratio 1:1, dose 10 nM): 98.6%
Mean tumor cell death (%) (Nalm-6 luc; E:T ratio 1:1, dose 20 nM): 98.4%
Mean tumor cell death (%) (Nalm-6 luc; E:T ratio 1:1, dose 40 nM): 96.1%
Mean tumor cell death (%) (Nalm-6 luc; E:T ratio 1:1, dose 60 nM): 97.9%
Mean tumor cell death (%) (Nalm-6 luc; E:T ratio 1:1, dose 80 nM): 98%
Mean tumor cell death (%) (Nalm-6 luc; E:T ratio 1:1, dose 100 nM): 97.2%
Mean tumor cell death (%) (Nalm-6 luc; E:T ratio 1:3, dose 10 nM): 83.2%
Mean tumor cell death (%) (Nalm-6 luc; E:T ratio 1:3, dose 20 nM): 87.3%
Mean tumor cell death (%) (Nalm-6 luc; E:T ratio 1:3, dose 40 nM): 85.5%
Mean tumor cell death (%) (Nalm-6 luc; E:T ratio 1:3, dose 60 nM): 75.7%
Mean tumor cell death (%) (Nalm-6 luc; E:T ratio 1:3, dose 80 nM): 66.6%
Mean tumor cell death (%) (Nalm-6 luc; E:T ratio 1:3, dose 100 nM): 46.8%
Mean tumor cell death (%) (Nalm-6 luc; E:T ratio 1:9, dose 10 nM): 37%
Mean tumor cell death (%) (Nalm-6 luc; E:T ratio 1:9, dose 20 nM): 28.9%
Mean tumor cell death (%) (Nalm-6 luc; E:T ratio 1:9, dose 40 nM): 36%
Mean tumor cell death (%) (Nalm-6 luc; E:T ratio 1:9, dose 60 nM): 40.5%
Mean tumor cell death (%) (Nalm-6 luc; E:T ratio 1:9, dose 80 nM): 28.2%
Mean tumor cell death (%) (Nalm-6 luc; E:T ratio 1:9, dose 100 nM): 25.6%
CD209 surface expression in M2 polarized macrophage cultures ([1]; 10 μM, compared to normal M2 polarization culture conditions): No reduction
skewing of macrophage phenotype amidst M2 polarizing conditions (M1 markers CD38 and HLA-DR) ([1]; separate experiment): skewed macrophages away from M2 towards M1 phenotype
pSTAT3 ([2]; 100 ng/ml IL-6 + drug 10 uM, 20 min, MSD signal (No stim. 689, IL-6 alone 33641)): 2238
pSTAT4 ([2]; 100 ng/ml IL-6 + drug 10 uM, 20 min, MSD signal (No stim. 1964, IL-6 alone 15405)): 2159
pSTAT5 ([2]; 100 ng/ml IL-6 + drug 10 uM, 20 min, MSD signal (No stim. 9210, IL-6 alone 17743)): 1431
pSTAT3 ([2]; IL-6 + drug 0.125 uM, MSD signal (No stim. 689, IL-6 alone 33641)): 7733
pSTAT4 ([2]; IL-6 + drug 0.125 uM, MSD signal (No stim. 1964, IL-6 alone 15405)): 3698
pSTAT5 ([2]; IL-6 + drug 0.125 uM, MSD signal (No stim. 9210, IL-6 alone 17743)): 2424
pSTAT3 ([2]; IL-6 + drug 0.5 uM, MSD signal (No stim. 689, IL-6 alone 33641)): 3382
pSTAT4 ([2]; IL-6 + drug 0.5 uM, MSD signal (No stim. 1964, IL-6 alone 15405)): 2503
pSTAT5 ([2]; IL-6 + drug 0.5 uM, MSD signal (No stim. 9210, IL-6 alone 17743)): 1756
pSTAT3 ([2]; IL-6 + drug 1 uM, MSD signal (No stim. 689, IL-6 alone 33641)): 2301
pSTAT4 ([2]; IL-6 + drug 1 uM, MSD signal (No stim. 1964, IL-6 alone 15405)): 2259
pSTAT5 ([2]; IL-6 + drug 1 uM, MSD signal (No stim. 9210, IL-6 alone 17743)): 1528
pSTAT3 ([2]; IL-6 + drug 5 uM, MSD signal (No stim. 689, IL-6 alone 33641)): 2165
pSTAT4 ([2]; IL-6 + drug 5 uM, MSD signal (No stim. 1964, IL-6 alone 15405)): 2033
pSTAT5 ([2]; IL-6 + drug 5 uM, MSD signal (No stim. 9210, IL-6 alone 17743)): 1421
effect on phosphorylated-STAT-1, STAT-3 and STAT-5 levels ([2]; IL-6 stimulation 100 ng/ml, 20 minutes, 10 μM to 0.125 μM): reduction of phosphorylated-STAT-1, STAT-3 and STAT-5 levels in a dose-responsive manner
pSTAT3 ([2]; lower dose titration, IL-6 + drug 3.125 nM, MSD signal (No stim. 123, IL-6 alone 5767)): 5917
pSTAT4 ([2]; lower dose titration, IL-6 + drug 3.125 nM, MSD signal (No stim. 281, IL-6 alone 3624)): 3525
pSTAT5 ([2]; lower dose titration, IL-6 + drug 3.125 nM, MSD signal (No stim. 324, IL-6 alone 2352)): 1810
pSTAT3 ([2]; lower dose titration, IL-6 + drug 6.25 nM, MSD signal (No stim. 123, IL-6 alone 5767)): 4586
pSTAT4 ([2]; lower dose titration, IL-6 + drug 6.25 nM, MSD signal (No stim. 281, IL-6 alone 3624)): 3455
pSTAT5 ([2]; lower dose titration, IL-6 + drug 6.25 nM, MSD signal (No stim. 324, IL-6 alone 2352)): 1808
pSTAT3 ([2]; lower dose titration, IL-6 + drug 12.5 nM, MSD signal (No stim. 123, IL-6 alone 5767)): 3998
pSTAT4 ([2]; lower dose titration, IL-6 + drug 12.5 nM, MSD signal (No stim. 281, IL-6 alone 3624)): 2304
pSTAT5 ([2]; lower dose titration, IL-6 + drug 12.5 nM, MSD signal (No stim. 324, IL-6 alone 2352)): 1187
pSTAT3 ([2]; lower dose titration, IL-6 + drug 25 nM, MSD signal (No stim. 123, IL-6 alone 5767)): 3115
pSTAT4 ([2]; lower dose titration, IL-6 + drug 25 nM, MSD signal (No stim. 281, IL-6 alone 3624)): 1982
pSTAT5 ([2]; lower dose titration, IL-6 + drug 25 nM, MSD signal (No stim. 324, IL-6 alone 2352)): 914
pSTAT3 ([2]; lower dose titration, IL-6 + drug 50 nM, MSD signal (No stim. 123, IL-6 alone 5767)): 2148
pSTAT4 ([2]; lower dose titration, IL-6 + drug 50 nM, MSD signal (No stim. 281, IL-6 alone 3624)): 1499
pSTAT5 ([2]; lower dose titration, IL-6 + drug 50 nM, MSD signal (No stim. 324, IL-6 alone 2352)): 703
pSTAT3 ([2]; lower dose titration, IL-6 + drug 100 nM, MSD signal (No stim. 123, IL-6 alone 5767)): 1006
pSTAT4 ([2]; lower dose titration, IL-6 + drug 100 nM, MSD signal (No stim. 281, IL-6 alone 3624)): 918
pSTAT5 ([2]; lower dose titration, IL-6 + drug 100 nM, MSD signal (No stim. 324, IL-6 alone 2352)): 513
viability at 0 day, 50 nM (in vitro): 75%
viability at 0 day, 100 nM (in vitro): 75%
viability at 4 day, 50 nM (in vitro): 67.7%
viability at 4 day, 100 nM (in vitro): 61.8%
viability at 8 day, 50 nM (in vitro): 74.2%
viability at 8 day, 100 nM (in vitro): 64.7%
viability at 12 day, 50 nM (in vitro): 80.1%
viability at 12 day, 100 nM (in vitro): 85.2%
